Source: PMC11239830, “Synthetic macrolides overcoming MLSBK-resistant pathogens” (Cell Discovery, 2024)
≈ marks a conversion by molar mass, not a printed value. Read-outs that look alike come from different tables or passages of the source.

How the values were obtained:
Assay in all cases: MIC, broth microdilution
H. influenzae = type: cell-based, Haemophilus influenzae
Method: (§1) MICs were determined by the microdilution method according to the Clinical and Laboratory Standards Institute guidelines. […] Finally, the 96-well plates were incubated at 37 °C for 16–20 h to observe and record the results. […] The assay for MICs was replicated at least three times.

S. aureus = type: cell-based, Staphylococcus aureus
Method: as §1

S. pneumoniae = type: cell-based, Streptococcus pneumoniae
Method: as §1

S. pyogenes = type: cell-based, Streptococcus pyogenes; settings: S. pyogenes 12-206, c-ermTR
Method: as §1

[1] = Haemophilus influenzae, ATCC49247, H. influenzae ATCC49247, Azi-S, read-out: MIC
[2] = Staphylococcus aureus, S. aureus 15B196, c-ermB, read-out: MIC
[3] = Staphylococcus aureus, S. aureus PU32, i-ermA, read-out: MIC
[4] = Streptococcus pneumoniae, ATCC49619, S. pneumoniae ATCC49619, Ery-S, read-out: MIC
[5] = Streptococcus pneumoniae, S. pneumoniae 07P390, c-ermB, read-out: MIC
[6] = Streptococcus pneumoniae, S. pneumoniae PU09, mef, read-out: MIC
[7] = Streptococcus pyogenes, read-out: MIC

| SMILES | MIC (H. influenzae; [1]) [µg/mL] | MIC (S. aureus; [2]) [µg/mL] | MIC (S. aureus; [3]) [µg/mL] | MIC (S. pneumoniae; [4]) [µg/mL] | MIC (S. pneumoniae; [5]) [µg/mL] | MIC (S. pneumoniae; [6]) [µg/mL] | MIC (S. pyogenes; [7]) [µg/mL] | MIC (H. influenzae; H. influenzae ATCC49247, Azi-S) [µg/mL] | MIC (S. aureus; S. aureus 15B196, c-ermB) [µg/mL] | MIC (S. aureus; S. aureus PU32, i-ermA) [µg/mL] | MIC (S. pneumoniae; S. pneumoniae 07P390, c-ermB) [µg/mL] | MIC (S. pneumoniae; S. pneumoniae ATCC49619, Ery-S) [µg/mL] | MIC (S. pneumoniae; S. pneumoniae PU09, mef) [µg/mL] | MIC (S. pyogenes) [µg/mL] | MIC (S. aureus; Staphylococcus aureus, S. aureus 15B196, c-ermB) [µg/mL] | MIC (S. aureus; Staphylococcus aureus, S. aureus PU32, i-ermA) [µg/mL] | MIC (S. pneumoniae; Streptococcus pneumoniae, S. pneumoniae 07P390, c-ermB) [µg/mL] |
| --- | --- | --- | --- | --- | --- | --- | --- | --- | --- | --- | --- | --- | --- | --- | --- | --- | --- |
| CC[C@H]1OC(=O)[C@H](C)[C@@H](OC(=O)NCCCCCCC#Cc2ccc3cc(C(=O)O)cnc3c2)[C@H](C)[C@@H](O[C@@H]2O[C@H](C)C[C@H](N(C)C)[C@H]2O)[C@](C)(OC)C[C@@H](C)C(=O)[C@H](C)[C@H]2NC(=O)O[C@@]21C [88j] | 128 (≈ 137 µM) | > 256 | 8 (≈ 8.54 µM) | 0.5 (≈ 0.534 µM) | > 256 | 1 (≈ 1.07 µM) | 128 (≈ 137 µM) |  |  |  |  |  |  |  |  |  |  |
| CC[C@H]1OC(=O)[C@H](C)[C@@H](OC(=O)NCCCOCCC#Cc2ccc3c(=O)c(C(=O)O)c[nH]c3c2)[C@H](C)[C@@H](O[C@@H]2O[C@H](C)C[C@H](N(C)C)[C@H]2O)[C@](C)(OC)C[C@@H](C)C(=O)[C@H](C)[C@H]2NC(=O)O[C@@]21C [95i] | 16 (≈ 16.8 µM) | 128 (≈ 134 µM) | 8 (≈ 8.38 µM) | 0.12 (≈ 0.126 µM) | 1 (≈ 1.05 µM) | 0.5 (≈ 0.523 µM) | 1 (≈ 1.05 µM) |  |  |  |  |  |  |  |  |  |  |
| CC[C@H]1OC(=O)[C@H](C)[C@@H](OC(=O)NCCCOCCC#Cc2ccc3cc(C(=O)O)cnc3c2)[C@H](C)[C@@H](O[C@@H]2O[C@H](C)C[C@H](N(C)C)[C@H]2O)[C@](C)(OC)C[C@@H](C)C(=O)[C@H](C)[C@H]2NC(=O)O[C@@]21C [95j] | 128 (≈ 136 µM) | > 256 | 64 (≈ 68.1 µM) | 1 (≈ 1.06 µM) | > 256 | 8 (≈ 8.52 µM) | 128 (≈ 136 µM) |  |  |  |  |  |  |  |  |  |  |
| CC[C@H]1OC(=O)[C@H](C)[C@@H](OC(=O)NCCCC#Cc2ccc3c(=O)c(C(=O)O)cn(C4CC4)c3c2)[C@H](C)[C@@H](O[C@@H]2O[C@H](C)C[C@H](N(C)C)[C@H]2O)[C@](C)(O)C[C@@H](C)CN(C)[C@H](C)[C@H]2OC(=O)O[C@@]21C [108c] |  |  |  |  |  |  |  | 8 (≈ 8.39 µM) | 512 (≈ 537 µM) | 64 (≈ 67.1 µM) | 128 (≈ 134 µM) | 0.25 (≈ 0.262 µM) | 1 (≈ 1.05 µM) | 64 (≈ 67.1 µM) |  |  |  |
| CC[C@H]1OC(=O)[C@H](C)[C@@H](OC(=O)NCCCCC#Cc2ccc3c(c2)c(=O)c(C(=O)O)cn3C2CC2)[C@H](C)[C@@H](O[C@@H]2O[C@H](C)C[C@H](N(C)C)[C@H]2O)[C@](C)(O)C[C@@H](C)CN(C)[C@H](C)[C@H]2OC(=O)O[C@@]21C [109a] |  |  |  |  |  |  |  | 32 (≈ 33.1 µM) | 256 (≈ 265 µM) | 32 (≈ 33.1 µM) | 256 (≈ 265 µM) | 1 (≈ 1.03 µM) | 2 (≈ 2.07 µM) | 128 (≈ 132 µM) |  |  |  |
| CC[C@H]1OC(=O)[C@H](C)[C@@H](OC(=O)NCCCCCC#Cc2ccc3c(c2)c(=O)c(C(=O)O)cn3C2CC2)[C@H](C)[C@@H](O[C@@H]2O[C@H](C)C[C@H](N(C)C)[C@H]2O)[C@](C)(O)C[C@@H](C)CN(C)[C@H](C)[C@H]2OC(=O)O[C@@]21C [110a] |  |  |  |  |  |  |  | 32 (≈ 32.6 µM) | 256 (≈ 261 µM) | 16 (≈ 16.3 µM) | 256 (≈ 261 µM) | 1 (≈ 1.02 µM) | 2 (≈ 2.04 µM) | 512 (≈ 522 µM) |  |  |  |
| CC[C@H]1OC(=O)[C@H](C)[C@@H](OC(=O)NCCCCCC#Cc2ccc3c(=O)c(C(=O)O)cn(C4CC4)c3c2)[C@H](C)[C@@H](O[C@@H]2O[C@H](C)C[C@H](N(C)C)[C@H]2O)[C@](C)(O)C[C@@H](C)CN(C)[C@H](C)[C@H]2OC(=O)O[C@@]21C [110c] |  |  |  |  |  |  |  | 8 (≈ 8.15 µM) | 128 (≈ 130 µM) | 4 (≈ 4.08 µM) | 1 (≈ 1.02 µM) | 0.016 (≈ 0.0163 µM) | 0.06 (≈ 0.0611 µM) | 2 (≈ 2.04 µM) |  |  |  |
| CC[C@H]1OC(=O)[C@H](C)[C@@H](OC(=O)NCCCCCCC#Cc2ccc3c(c2)c(=O)c(C(=O)O)cn3C2CC2)[C@H](C)[C@@H](O[C@@H]2O[C@H](C)C[C@H](N(C)C)[C@H]2O)[C@](C)(O)C[C@@H](C)CN(C)[C@H](C)[C@H]2OC(=O)O[C@@]21C [111a] |  |  |  |  |  |  |  | 16 (≈ 16.1 µM) | 128 (≈ 129 µM) | 32 (≈ 32.2 µM) | 256 (≈ 257 µM) | 0.5 (≈ 0.502 µM) | 2 (≈ 2.01 µM) | 128 (≈ 129 µM) |  |  |  |
| CC[C@H]1OC(=O)[C@H](C)[C@@H](OC(=O)NCCCCCCC#Cc2ccc3c(=O)c(C(=O)O)cn(C4CC4)c3c2)[C@H](C)[C@@H](O[C@@H]2O[C@H](C)C[C@H](N(C)C)[C@H]2O)[C@](C)(O)C[C@@H](C)CN(C)[C@H](C)[C@H]2OC(=O)O[C@@]21C [111c] |  |  |  |  |  |  |  | 8 (≈ 8.04 µM) | 16 (≈ 16.1 µM) | 4 (≈ 4.02 µM) | 0.5 (≈ 0.502 µM) | ≤ 0.008 | ≤ 0.008 | 2 (≈ 2.01 µM) |  |  |  |
| CC[C@H]1OC(=O)[C@H](C)[C@@H](OC(=O)NCCOCCC#Cc2ccc3c(c2)c(=O)c(C(=O)O)cn3C2CC2)[C@H](C)[C@@H](O[C@@H]2O[C@H](C)C[C@H](N(C)C)[C@H]2O)[C@](C)(O)C[C@@H](C)CN(C)[C@H](C)[C@H]2OC(=O)O[C@@]21C [116a] |  |  |  |  |  |  |  | 64 (≈ 65.1 µM) | 512 (≈ 521 µM) | 128 (≈ 130 µM) | 512 (≈ 521 µM) | 4 (≈ 4.07 µM) | 8 (≈ 8.14 µM) | 512 (≈ 521 µM) |  |  |  |
| CC[C@H]1OC(=O)[C@H](C)[C@@H](OC(=O)NCCOCCC#Cc2ccc3c(=O)c(C(=O)O)cn(C4CC4)c3c2)[C@H](C)[C@@H](O[C@@H]2O[C@H](C)C[C@H](N(C)C)[C@H]2O)[C@](C)(O)C[C@@H](C)CN(C)[C@H](C)[C@H]2OC(=O)O[C@@]21C [116c] |  |  |  |  |  |  |  | 8 (≈ 8.14 µM) | 512 (≈ 521 µM) | 32 (≈ 32.5 µM) | 4 (≈ 4.07 µM) | 0.12 (≈ 0.122 µM) | 1 (≈ 1.02 µM) | 8 (≈ 8.14 µM) |  |  |  |
| CC[C@H]1OC(=O)[C@H](C)[C@@H](OC(=O)NCCCOCCC#Cc2ccc3c(c2)c(=O)c(C(=O)O)cn3C2CC2)[C@H](C)[C@@H](O[C@@H]2O[C@H](C)C[C@H](N(C)C)[C@H]2O)[C@](C)(O)C[C@@H](C)CN(C)[C@H](C)[C@H]2OC(=O)O[C@@]21C [117a] |  |  |  |  |  |  |  | 32 (≈ 32.1 µM) | 512 (≈ 513 µM) | 32 (≈ 32.1 µM) | 512 (≈ 513 µM) | 1 (≈ 1 µM) | 2 (≈ 2.01 µM) | 512 (≈ 513 µM) |  |  |  |
| CC[C@H]1OC(=O)[C@H](C)[C@@H](OC(=O)NCCCCCCC#Cc2ccc3c(=O)c(C(=O)O)cn(C)c3c2)[C@H](C)[C@@H](O[C@@H]2O[C@H](C)C[C@H](N(C)C)[C@H]2O)[C@](C)(OC)C[C@@H](C)NC(=O)[C@H](C)[C@@H](O)[C@]1(C)O [126g] | 4 (≈ 4.18 µM) | 16 (≈ 16.7 µM) | 2 (≈ 2.09 µM) | 0.06 (≈ 0.0627 µM) | 2 (≈ 2.09 µM) | 0.12 (≈ 0.125 µM) | 2 (≈ 2.09 µM) |  |  |  |  |  |  |  |  |  |  |
| CC[C@H]1OC(=O)[C@H](C)[C@@H](O[C@H]2C[C@@](C)(OC)[C@@H](O)[C@H](C)O2)[C@H](C)[C@@H](O[C@@H]2O[C@H](C)C[C@H](N(C)C)[C@H]2O)[C@](C)(O)C[C@@H](C)CN(C)[C@H](C)[C@@H](O)[C@]1(C)O [azithromycin, reference compound] | 2 (≈ 2.67 µM) |  |  | 0.25 (≈ 0.334 µM) |  | 8 (≈ 10.7 µM) | > 256 |  |  |  |  |  |  |  | > 256 | > 256 | > 256 |
